Laboratory results reported in patent US12036281B2 (ONEHEALTHCOMPANY, INC., priority 2019, dated 2024).

Columns and labels:
cancer = assay: Treatment of canine cancers with targeted drug, disease progression and overall survival compared to historical controls; assay type: in vivo; details: alone or in combination with other anti-cancer agents
Method: Canine subjects with cancer were treated with Rapamycin alone or in combination with other anti-cancer agents (Tables 3 and 12-26). The subjects were administered Rapamycin orally with a starting dose of 0.1 mg/kg/day and were monitored for disease progression compared to historical controls.
Canine subjects with cancer were treated with Dasatinib alone or in combination with other anti-cancer agents (Tables 4 and 12-26). The subjects were administered Dasatinib orally with a starting dose of 0.5-0.7 mg/kg/day and were monitored for disease progression compared to historical controls.
Canine subjects with cancer were treated with Vorinostat alone or in combination with other anti-cancer agents (Tables 7 and 12-26). The subjects were administered Vorinostat orally with a starting dose of 30-60 mg/kg/every other day and were monitored for disease progression compared to historical controls.
Canine subjects with cancer were treated with Crizotinib alone or in combination with other anti-cancer agents (Table 9 and 12-26). The subjects were administered Crizotinib orally with a starting dose of 1 mg/kg/day-2 mg/kg/day and were monitored for disease progression compared to historical controls.
Canine subjects with cancer were treated with Sorafenib alone or in combination with other anti-cancer agents (Tables 10 and 12-26). The subjects were administered Sorafenib orally with a starting dose of 1 mg/kg/day-3 mg/kg/day or 1 mg/kg/day-3 mg/kg/week and were monitored for disease progression compared to historical controls.

[1] = Number and type of adverse effects reported in treated canines; assay type: in vivo; details: canine subjects with cancer; for subjects with clinically reported outcomes that experienced adverse effects: diarrhea, vomiting, inappetence, lethargy, skin lesions, liver enzymes, cardiac toxicity, hemorrhagic gastroenteritis monitored, cohorts 192, 94, 162, 275, 89, 83, 9 subjects
Method: Canine subjects with cancer were treated with pharmaceutical compositions comprising Rapamycin and were monitored for adverse effects including: diarrhea, vomiting inappetence, lethargy, skin lesions, progressive liver enzyme evaluations, increased cardiac toxicity and hemorrhagic gastroenteritis.
Canine subjects with cancer were treated with pharmaceutical compositions comprising Dasatinib and were monitored for adverse effects including: diarrhea, vomiting inappetence, lethargy, skin lesions, progressive liver enzyme evaluations, increased cardiac toxicity and hemorrhagic gastroenteritis.
Canine subjects with cancer were treated with pharmaceutical compositions comprising Vorinostat and were monitored for adverse effects including: diarrhea, vomiting inappetence, lethargy, skin lesions, progressive liver enzyme evaluations, increased cardiac toxicity and hemorrhagic gastroenteritis.
Canine subjects with cancer were treated with pharmaceutical compositions comprising Crizotinib and were monitored for adverse effects including: diarrhea, vomiting inappetence, lethargy, skin lesions, progressive liver enzyme evaluations, increased cardiac toxicity and hemorrhagic gastroenteritis.
Canine subjects with cancer were treated with pharmaceutical compositions comprising Sorafenib and were monitored for adverse effects including: diarrhea, vomiting inappetence, lethargy, skin lesions, progressive liver enzyme evaluations, increased cardiac toxicity and hemorrhagic gastroenteritis.

Compound	subjects with clinically reported outcomes that experienced adverse effects [1] [%]	further results
CNC(=O)c1cc(Oc2ccc(NC(=O)Nc3ccc(Cl)c(C(F)(F)F)c3)cc2)ccn1 [Sorafenib]		overall survival compared to control subjects (cancer; Sorafenib orally, starting dose 1 mg/kg/day-3 mg/kg/day or 1 mg/kg/day-3 mg/kg/week): significant improvement; subjects with clinically reported outcomes that experience adverse effects ([1]; result in words): A minority of subjects
O=C(CCCCCCC(=O)Nc1ccccc1)NO [Vorinostat]	34	overall survival compared to control subjects (cancer; Vorinostat orally, starting dose 30-60 mg/kg/every other day): significant improvement
CS(=O)(=O)CCNCc1ccc(-c2ccc3ncnc(Nc4ccc(OCc5cccc(F)c5)c(Cl)c4)c3c2)o1 [Lapatinib]	22	overall survival compared to control subjects (cancer; Lapatinib orally, starting dose 5-10 mg/kg/day): significant improvement
Cc1ccc(NC(=O)c2ccc(CN3CCN(C)CC3)cc2)cc1Nc1nccc(-c2cccnc2)n1 [Imatinib]		overall survival compared to control subjects (cancer; Imatinib orally, starting dose 10 mg/kg/day): significant improvement
C[C@@H](Oc1cc(-c2cnn(C3CCNCC3)c2)cnc1N)c1c(Cl)ccc(F)c1Cl [Crizotinib]	43	overall survival compared to control subjects (cancer; Crizotinib orally, starting dose 1 mg/kg/day-2 mg/kg/day): significant improvement
CC(=O)Nc1cccc(-n2c(=O)n(C3CC3)c(=O)c3c(Nc4ccc(I)cc4F)n(C)c(=O)c(C)c32)c1 [Trametinib]	24	
Cc1nc(Nc2ncc(C(=O)Nc3c(C)cccc3Cl)s2)cc(N2CCN(CCO)CC2)n1 [Dasatinib]	31	
CO[C@H]1C[C@@H]2CC[C@@H](C)[C@@](O)(O2)C(=O)C(=O)N2CCCC[C@H]2C(=O)O[C@H]([C@H](C)C[C@@H]2CC[C@@H](O)[C@H](OC)C2)CC(=O)[C@H](C)/C=C(\C)[C@@H](O)[C@@H](OC)C(=O)[C@H](C)C[C@H](C)/C=C/C=C/C=C/1C [Rapamycin]	21	
